From patent publication EP2295560A1, “Directed evolution of arginine deiminase for increased activity at physiological pH” (priority 2009, dated 2011)

Target: Pseudomonas plecoglossicida arginine deiminase (PpADI) variant M2 (K5T D44E H404R) (Pseudomonas plecoglossicida, UniProt A7LKB0, D44E/H404R/K5T)
Test: Determination of kcat and Km (citrulline colorimetric assay, purified enzyme)
Assay type: biochemical, Pseudomonas plecoglossicida CGMCC2039
Settings: pH 7.4, conversion of arginine to citrulline, compared to wild type
Experimental: The kcat and Km values were determined from initial velocity data measured as a function of substrate concentration. Enzyme reaction was carried out at 37°C in a water bath. After 10 min preincubation at 37"C, the enzyme reaction was initiated by addition of purified enzyme (50 µl, 0.2-0.5 µM) to the substrate solution (200 µl, 0.2 mM to 10 mM of arginine, 0.5 M phosphate buffer, pH 7.4) in deep well plates. The reaction mixture was incubated (37°C) and every two minutes reaction mixture (30 µl) of each well was transferred to acid-ferric solution (30 µl) to stop the enzyme reaction. The color development was subsequently performed in 96-well PCR plate. Ferric-acid solution (90 µl) and DAM-TSC solution (15 µl) were added to each well. The 96-well PCR plate was then incubated (70°C, 30 min) in thermal cycler (Eppendorf Mastercyler gradient) for color development, followed by incubation in ice water to stop color development. Absorbance was measured at 530 nm using a microtiter plate reader (SPECTROstar Omega, BMG LABTECH, Offenburg, Germany). […] The kcat was calculated from the ratio of Vmax, and enzyme concentration. […]

Sequence of Pseudomonas plecoglossicida arginine deiminase (PpADI) variant M2 (K5T D44E H404R) (A7LKB0 whole entry D44E/H404R/K5T): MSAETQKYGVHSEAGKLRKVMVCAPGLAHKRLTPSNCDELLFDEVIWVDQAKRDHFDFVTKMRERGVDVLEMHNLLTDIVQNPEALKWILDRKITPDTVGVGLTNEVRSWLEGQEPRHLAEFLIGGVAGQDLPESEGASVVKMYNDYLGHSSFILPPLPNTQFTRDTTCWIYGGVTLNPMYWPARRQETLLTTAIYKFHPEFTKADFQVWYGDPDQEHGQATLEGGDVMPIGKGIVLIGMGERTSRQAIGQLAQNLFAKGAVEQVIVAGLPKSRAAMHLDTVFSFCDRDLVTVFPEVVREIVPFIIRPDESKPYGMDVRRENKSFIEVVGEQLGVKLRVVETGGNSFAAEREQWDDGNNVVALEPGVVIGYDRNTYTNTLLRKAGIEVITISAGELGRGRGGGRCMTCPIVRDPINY

N=C(N)NCCC[C@H](N)C(=O)O [arginine]
kcat, fold higher than wild type PpADI: 4 fold
